Results reported in patent US5021549A, “Physiologically active substances, probestin and prostatin and production thereof” (priority 1987, dated 1991).
pIC50: −log10 of the molar value.

Tests used:
[1] = target: T1, aminopeptidase M (Sus scrofa, UniProt P15145); test: Inhibition of aminopeptidase M (L-leucine-β-naphthylamide substrate); type: biochemical; conditions: read-out: Value of IC50 against Aminopeptidase M (converted)
T1 construct: purchased Boehringer Mannheim Company
T1 sequence (P15145 1-963): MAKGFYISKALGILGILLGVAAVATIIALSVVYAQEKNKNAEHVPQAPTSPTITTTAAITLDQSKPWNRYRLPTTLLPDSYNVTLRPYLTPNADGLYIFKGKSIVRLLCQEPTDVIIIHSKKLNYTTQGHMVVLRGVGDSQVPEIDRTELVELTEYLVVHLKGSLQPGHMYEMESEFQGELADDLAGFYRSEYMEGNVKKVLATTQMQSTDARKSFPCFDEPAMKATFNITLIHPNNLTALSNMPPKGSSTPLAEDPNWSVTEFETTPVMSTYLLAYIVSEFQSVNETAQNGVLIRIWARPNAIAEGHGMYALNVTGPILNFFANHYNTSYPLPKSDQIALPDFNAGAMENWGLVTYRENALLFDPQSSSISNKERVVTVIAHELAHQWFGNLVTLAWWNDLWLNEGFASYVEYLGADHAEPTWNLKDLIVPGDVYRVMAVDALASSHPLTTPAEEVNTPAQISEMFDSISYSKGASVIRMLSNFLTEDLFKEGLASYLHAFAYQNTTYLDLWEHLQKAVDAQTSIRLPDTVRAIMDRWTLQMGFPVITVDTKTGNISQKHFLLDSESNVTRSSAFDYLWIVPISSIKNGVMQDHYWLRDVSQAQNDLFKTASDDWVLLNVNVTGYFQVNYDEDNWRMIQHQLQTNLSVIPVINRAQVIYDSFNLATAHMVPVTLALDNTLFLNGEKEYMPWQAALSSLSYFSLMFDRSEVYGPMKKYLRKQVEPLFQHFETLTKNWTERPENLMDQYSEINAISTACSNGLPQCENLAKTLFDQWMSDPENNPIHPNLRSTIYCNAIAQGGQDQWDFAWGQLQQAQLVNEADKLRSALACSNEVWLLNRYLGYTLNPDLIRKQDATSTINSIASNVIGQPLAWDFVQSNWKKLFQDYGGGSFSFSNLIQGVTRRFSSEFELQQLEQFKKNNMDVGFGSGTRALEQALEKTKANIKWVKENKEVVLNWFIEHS
Procedure: The mixture solution obtained is heated at 37° C. for 3 minutes. To the heated solution is added 0.05 ml of an aqueous solution of aminopeptidase M (a product of Boehringer Mannheim Company; 4 units/mg). The resulting mixture is incubated for 30 minutes at 37° C. for the enzymatic reaction and the resultant reaction mixture is admixed with 1 ml of 1.0 M acetate buffered solution (pH 4.2) containing 10% of a surfectant "Tween" 20 and 0.1% of Fast Garnet GBC (0-aminoazotoluene, diazonium salt) to stop the enzymatic reaction. After allowing the resulting mixture to stand at ambient temperature for 15 minutes, the absorbance of light at 525 nm of the resultant reaction solution is measured, with designating the measured value as value (a). […] The rate (%) of inhibition to the aminopeptidase M is calculated from an equation [(b-a)/b]×100.

[2] = target: Aminopeptidase-A (Homo sapiens, UniProt Q07075); test: Inhibition of aminopeptidase-A
Chain of Aminopeptidase-A (Q07075 whole entry): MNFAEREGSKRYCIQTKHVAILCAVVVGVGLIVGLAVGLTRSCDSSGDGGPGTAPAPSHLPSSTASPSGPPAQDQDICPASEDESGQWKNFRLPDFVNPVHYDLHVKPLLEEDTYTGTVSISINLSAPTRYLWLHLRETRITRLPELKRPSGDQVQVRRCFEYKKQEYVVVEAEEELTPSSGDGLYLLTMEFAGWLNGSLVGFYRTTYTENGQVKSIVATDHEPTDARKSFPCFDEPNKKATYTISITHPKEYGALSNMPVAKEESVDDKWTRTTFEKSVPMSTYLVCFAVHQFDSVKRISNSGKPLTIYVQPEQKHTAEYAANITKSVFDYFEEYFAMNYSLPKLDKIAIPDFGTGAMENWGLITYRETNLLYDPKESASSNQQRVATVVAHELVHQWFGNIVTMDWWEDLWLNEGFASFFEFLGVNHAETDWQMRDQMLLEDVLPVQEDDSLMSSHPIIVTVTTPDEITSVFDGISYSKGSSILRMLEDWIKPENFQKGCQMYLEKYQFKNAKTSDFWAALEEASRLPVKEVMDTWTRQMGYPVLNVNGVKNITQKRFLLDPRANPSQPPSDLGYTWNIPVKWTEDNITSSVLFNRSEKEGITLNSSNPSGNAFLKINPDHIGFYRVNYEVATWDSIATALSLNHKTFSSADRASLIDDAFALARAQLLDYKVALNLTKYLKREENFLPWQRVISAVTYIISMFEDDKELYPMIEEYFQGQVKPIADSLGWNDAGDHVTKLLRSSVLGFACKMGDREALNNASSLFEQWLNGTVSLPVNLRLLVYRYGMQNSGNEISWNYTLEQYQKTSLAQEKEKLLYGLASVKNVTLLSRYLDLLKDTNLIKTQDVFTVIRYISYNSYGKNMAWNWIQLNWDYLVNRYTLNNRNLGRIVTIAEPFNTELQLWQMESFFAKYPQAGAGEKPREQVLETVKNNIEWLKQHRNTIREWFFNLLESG

[3] = target: Leucine-aminopeptidase (Homo sapiens, UniProt P28838); test: Inhibition of leucine-aminopeptidase
Chain of Leucine-aminopeptidase (P28838 whole entry): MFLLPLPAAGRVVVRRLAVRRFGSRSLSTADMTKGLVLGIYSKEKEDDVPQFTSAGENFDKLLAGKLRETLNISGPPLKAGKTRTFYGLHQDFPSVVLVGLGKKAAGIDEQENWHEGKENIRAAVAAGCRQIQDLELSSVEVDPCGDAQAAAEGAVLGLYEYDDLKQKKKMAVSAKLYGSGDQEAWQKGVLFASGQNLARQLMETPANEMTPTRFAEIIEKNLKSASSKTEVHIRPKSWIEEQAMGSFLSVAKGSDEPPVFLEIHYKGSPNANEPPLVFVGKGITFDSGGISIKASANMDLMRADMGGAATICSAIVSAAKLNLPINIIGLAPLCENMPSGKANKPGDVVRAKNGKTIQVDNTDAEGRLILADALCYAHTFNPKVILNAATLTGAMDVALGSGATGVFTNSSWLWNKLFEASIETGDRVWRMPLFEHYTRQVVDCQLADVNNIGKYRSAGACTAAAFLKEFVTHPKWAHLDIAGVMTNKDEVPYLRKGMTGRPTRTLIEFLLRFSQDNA

[4] = system: antibody-forming cells in spleen; test: Humoral antibody formation: plaque-forming cells in spleen of SRBC-immunized mice (Jerne's hemolytic plaque technique); type: in vivo, CDF-mice; conditions: for Number of PFC: counted 4 days after SRBC immunization; for T/C (%): PFC number versus control
Procedure: CDF-mice were immunized by intravenous injection of 10^8 sheep red blood cells (SRBC). 1000 μg/mouse, 250 μg/mouse or 62.5 μg/mouse of probestin was administered by intraperitoneal injection into the mice at the time of the immunization with SRBC (0 hour) and then totally three times, namely 24, 48 and 72 hours after the immunization. Four days after the immunization with SRBC, the number of the plaque-forming cell (PFC) (namely, the antibody-forming cells) in spleen was enumerated by the known Jerne's hemolytic plaque technique [Jerne, N.K; A. A. Nordin & C. Henry; "The agar plaque technique for recognizing antibody-producing cells in cell-bound antibodies" pp. 109-122 published by Wister Institute press, Philadelphia (1963)].

[5] = system: mice; test: Acute toxicity by intravenous injection in mice; type: in vivo
[6] = Solubility in solvents; type: physicochemical; conditions: water and organic solvents
[7] = target: Aminopeptidase-B (Homo sapiens, UniProt Q9H4A4); test: Inhibition of aminopeptidase-B
Chain of Aminopeptidase-B (Q9H4A4 whole entry): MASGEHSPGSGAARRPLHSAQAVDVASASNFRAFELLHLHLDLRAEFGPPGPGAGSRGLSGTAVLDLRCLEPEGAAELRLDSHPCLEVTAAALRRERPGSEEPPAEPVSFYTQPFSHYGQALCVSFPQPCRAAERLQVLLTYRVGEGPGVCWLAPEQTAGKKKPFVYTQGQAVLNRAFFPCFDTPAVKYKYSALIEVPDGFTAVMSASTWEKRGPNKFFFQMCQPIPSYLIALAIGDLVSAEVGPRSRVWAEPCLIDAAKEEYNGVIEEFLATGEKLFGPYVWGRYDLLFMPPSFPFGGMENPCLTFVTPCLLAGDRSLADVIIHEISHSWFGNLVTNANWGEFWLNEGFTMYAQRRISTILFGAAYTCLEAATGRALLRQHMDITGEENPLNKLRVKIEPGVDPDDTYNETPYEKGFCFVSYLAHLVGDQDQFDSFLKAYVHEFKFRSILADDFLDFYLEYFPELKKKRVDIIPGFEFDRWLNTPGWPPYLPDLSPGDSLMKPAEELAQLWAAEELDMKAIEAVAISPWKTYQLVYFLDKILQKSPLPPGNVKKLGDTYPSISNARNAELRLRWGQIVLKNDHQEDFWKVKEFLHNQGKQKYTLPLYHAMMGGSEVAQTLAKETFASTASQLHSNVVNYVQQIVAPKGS

SMILES | IC50 [1] [nM] | pIC50 [2] | pIC50 [3] | Number of PFC ([4]; 62.5 μg/mouse ip. at 0, 24, 48, 72 h) | T/C (%) ([4]; 62.5 μg/mouse ip.) | Number of PFC ([4]; 250 μg/mouse ip. at 0, 24, 48, 72 h) | T/C (%) ([4]; 250 μg/mouse ip.) | Number of PFC ([4]; 1000 μg/mouse ip. at 0, 24, 48, 72 h) | T/C (%) ([4]; 1000 μg/mouse ip.) | Effect on number of antibody-forming cells in spleen (in words) ([4]; intraperitoneal injection, SRBC-immunized mice, probestin 1000 μg to 62.5 μg/mouse) | LD50 [5] | Solubility [6] | Value of IC50 against Aminopeptidase-A [2] [µg/mL] | Value of IC50 against Aminopeptidase-B [7] [µg/mL] | Value of IC50 against Leucine-aminopeptidase [3] [µg/mL]
CCCCC[C@H](CC(=O)NO)C(=O)N[C@H](C(=O)N1CCC[C@H]1CO)C(C)C [Actinonin, actinonin, reference compound] | 1040 | < 3.59 | 5.59 |  |  |  |  |  |  |  |  |  |  |  | 
CC(C)C[C@H](NC(=O)[C@@H](O)[C@H](N)Cc1ccccc1)C(=O)N1CCC[C@H]1C(=O)N1CCC[C@H]1C(=O)O [Probestin] |  |  |  | 492.540 ± 69.980 × 10^3 /spleen | 212.1 | 631.680 ± 69.560 × 10^3 /spleen | 271.8 | 891.900 ± 162.610 × 10^3 /spleen | 384.1 | increased number of the antibody-forming cells in the spleen | greater than 250 mg/kg | Readily soluble in water, methanol and dimethyl-sulfoxide, but insoluble in acetone, ethyl acetate, chloroform and hexane | > 100 | 36.7 | 0.091
